From patent US20120083522A1, “MODULATION OF INFLAMMATORY RESPONSES BY FACTOR XI” (Isis Pharmaceuitcals, inc., priority 2009, published 2012)

Legend:
[1] = test system: human Factor XI mRNA; assay: Dose-dependent inhibition in HepB3 cells, lipofectin (Example 7); format: cell-based; conditions: approx. 16 h
Outline: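 Antisense oligonucleotides at 2.3–75 nM were delivered by lipofectin into cells seeded at 4,000/well and left for ~16 h. Factor XI mRNA was quantified by qRT-PCR with primer probe set RTS 2966 and normalised to RIBOGREEN total RNA. Values are percent inhibition versus untreated cells.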

[2] = test system: human Factor XI mRNA; assay: Dose-dependent inhibition in HepG2 cells, electroporation (Example 5); format: cell-based; conditions: approx. 16 h, relative to untreated control cells
Outline: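 20,000 cells per well electroporated with 625–20,000 nM antisense oligonucleotide; RNA isolated after ~16 h. Factor XI mRNA by quantitative real-time PCR (primer probe set RTS 2966), normalised to RIBOGREEN total RNA; percent inhibition relative to untreated control cells.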

[3] = Tolerability in Sprague-Dawley rats: body and organ weight (Example 19); format: in vivo; conditions: 50 mg/kg s.c. twice per week for 6 weeks, change over weight at start of study
Text: Urine samples were taken before the start of treatment.
The body weights are presented in Table 78 and are expressed as a percent change over the weights taken at the start of the study.

[4] = test system: human Factor XI mRNA; assay: Dose-dependent inhibition in HepG2 cells, electroporation (Example 4); format: cell-based; conditions: 16 hours
Outline: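 HepG2 cells electroporated with 0.7, 2.2, 6.7 or 20 μM antisense gapmer and harvested after ~16 h. Factor XI mRNA quantified by qRT-PCR (primer probe set RTS 2966), normalised to total RNA (RIBOGREEN). Reported as percent inhibition versus untreated control cells.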

[5] = test system: human Factor XI mRNA; assay: Dose-dependent inhibition in HepG2 cells, lipofectin (Example 4); format: cell-based; conditions: 16 hours
Outline: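 HepG2 cells at 10,000 per well were lipofectin-transfected with 9.375, 18.75, 37.5 or 75 nM antisense oligonucleotide for about 16 h. Factor XI mRNA was quantified by real-time PCR (primer probe set RTS 2966) and normalised to RIBOGREEN total RNA. Values are percent inhibition versus untreated cells.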

[6] = test system: human Factor XI mRNA; assay: Dose-dependent inhibition in HepB3 cells, electroporation (Example 7); format: cell-based; conditions: approx. 16 h
Outline: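 HepB3 cells electroporated with gapmer at 41.15, 123.457, 370.37, 1111.11, 3333.33 and 10,000 nM; ~16 h treatment. Factor XI mRNA quantified by qRT-PCR (primer probe set RTS 2966), normalized to RIBOGREEN total RNA; percent inhibition versus untreated control cells.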

[7] = test system: human Factor XI mRNA; assay: Dose-dependent inhibition in cyno primary hepatocytes, electroporation (Example 6); format: cell-based, cynomolgus monkey; conditions: approx. 16 h
Outline: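 Cyno primary hepatocytes electroporated with antisense oligonucleotide at 0.74, 2.2, 6.7, 20, 60 and 180 nM and treated ~16 h. Factor XI mRNA measured by qRT-PCR (primer probe set RTS 2966), normalised to total RNA by RIBOGREEN; percent inhibition relative to untreated cells.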

| Substance | percent inhibition of human Factor XI mRNA ([1]; 2.3 nM) | percent inhibition of human Factor XI mRNA ([1]; 4.7 nM) | percent inhibition of human Factor XI mRNA ([1]; 9.4 nM) | percent inhibition of human Factor XI mRNA ([1]; 18.75 nM) | percent inhibition of human Factor XI mRNA ([1]; 37.5 nM) | percent inhibition of human Factor XI mRNA ([1]; 75 nM) | percent inhibition of human Factor XI mRNA ([2]; 625 nM) | percent inhibition of human Factor XI mRNA ([2]; 1250 nM) | percent inhibition of human Factor XI mRNA ([2]; 2500 nM) | percent inhibition of human Factor XI mRNA ([2]; 5000 nM) | percent inhibition of human Factor XI mRNA ([2]; 10000 nM) | percent inhibition of human Factor XI mRNA ([2]; 20000 nM) | Percent change in Body weight [3] | percent inhibition of Factor XI mRNA, relative to untreated control cells ([4]; 0.7 μM) | percent inhibition of Factor XI mRNA, relative to untreated control cells ([4]; 2.2 μM) | percent inhibition of Factor XI mRNA, relative to untreated control cells ([4]; 6.7 μM) | percent inhibition of Factor XI mRNA, relative to untreated control cells ([4]; 20 μM) | percent inhibition of Factor XI mRNA, relative to untreated control cells ([5]; 9.375 nM) | percent inhibition of Factor XI mRNA, relative to untreated control cells ([5]; 18.75 nM) | percent inhibition of Factor XI mRNA, relative to untreated control cells ([5]; 37.5 nM) | also measured |
| --- | --- | --- | --- | --- | --- | --- | --- | --- | --- | --- | --- | --- | --- | --- | --- | --- | --- | --- | --- | --- | --- |
| 416999 (antisense GCACAGTTTCTGGCAGGCCT; 2-13-5 gapmer, wing sugar chemistry not given here, further chemistry not given here) [compound 416999] | 19% | 33% | 42% | 60% | 71% | 59% | 61% | 82% | 89% | 94% | 94% | 97% | −37% | 20% | 42% | 77% | 88% | 24% | 37% | 55% | percent inhibition of Factor XI mRNA, relative to untreated control cells ([5]; 75 nM): 73%; percent inhibition of human Factor XI mRNA ([6]; 41.15 nM): 31%; percent inhibition of human Factor XI mRNA ([6]; 123.457 nM): 45%; percent inhibition of human Factor XI mRNA ([6]; 370.37 nM): 62%; percent inhibition of human Factor XI mRNA ([6]; 1111.11 nM): 78%; percent inhibition of human Factor XI mRNA ([6]; 3333.33 nM): 94%; percent inhibition of human Factor XI mRNA ([6]; 10000 nM): 97%; percent inhibition of human Factor XI mRNA ([7]; 0.74 nM): 3%; percent inhibition of human Factor XI mRNA ([7]; 2.2 nM): 40%; percent inhibition of human Factor XI mRNA ([7]; 6.7 nM): 36%; percent inhibition of human Factor XI mRNA ([7]; 20 nM): 62%; percent inhibition of human Factor XI mRNA ([7]; 60 nM): 67%; percent inhibition of human Factor XI mRNA ([7]; 180 nM): 82% |
| 417002 (antisense GGTGCACAGTTTCTGGCAGG; 2-13-5 gapmer, wing sugar chemistry not given here, further chemistry not given here) [compound 417002] | 24% | 30% | 46% | 57% | 71% | 65% | 59% | 72% | 86% | 90% | 94% | 96% | −29% | 32% | 38% | 82% | 91% | 35% | 52% | 67% | percent inhibition of Factor XI mRNA, relative to untreated control cells ([5]; 75 nM): 70%; percent inhibition of human Factor XI mRNA ([6]; 41.15 nM): 19%; percent inhibition of human Factor XI mRNA ([6]; 123.457 nM): 0%; percent inhibition of human Factor XI mRNA ([6]; 370.37 nM): 31%; percent inhibition of human Factor XI mRNA ([6]; 1111.11 nM): 47%; percent inhibition of human Factor XI mRNA ([6]; 3333.33 nM): 86%; percent inhibition of human Factor XI mRNA ([6]; 10000 nM): 93%; percent inhibition of human Factor XI mRNA ([7]; 0.74 nM): 32%; percent inhibition of human Factor XI mRNA ([7]; 2.2 nM): 16%; percent inhibition of human Factor XI mRNA ([7]; 6.7 nM): 28%; percent inhibition of human Factor XI mRNA ([7]; 20 nM): 38%; percent inhibition of human Factor XI mRNA ([7]; 60 nM): 55%; percent inhibition of human Factor XI mRNA ([7]; 180 nM): 71% |
| 417003 (antisense TGGTGCACAGTTTCTGGCAG; 2-13-5 gapmer, wing sugar chemistry not given here, further chemistry not given here) [compound 417003] | 11% | 28% | 40% | 40% | 63% | 58% | 60% | 74% | 86% | 90% | 95% | 95% | −40% | 0% | 34% | 75% | 89% | 26% | 44% | 60% | percent inhibition of Factor XI mRNA, relative to untreated control cells ([5]; 75 nM): 56%; percent inhibition of human Factor XI mRNA ([6]; 41.15 nM): 31%; percent inhibition of human Factor XI mRNA ([6]; 123.457 nM): 0%; percent inhibition of human Factor XI mRNA ([6]; 370.37 nM): 15%; percent inhibition of human Factor XI mRNA ([6]; 1111.11 nM): 43%; percent inhibition of human Factor XI mRNA ([6]; 3333.33 nM): 84%; percent inhibition of human Factor XI mRNA ([6]; 10000 nM): 92%; percent inhibition of human Factor XI mRNA ([7]; 0.74 nM): 12%; percent inhibition of human Factor XI mRNA ([7]; 2.2 nM): 18%; percent inhibition of human Factor XI mRNA ([7]; 6.7 nM): 19%; percent inhibition of human Factor XI mRNA ([7]; 20 nM): 39%; percent inhibition of human Factor XI mRNA ([7]; 60 nM): 58%; percent inhibition of human Factor XI mRNA ([7]; 180 nM): 74% |
